Calls of active or inactive are those of the source. The rule behind the calls is not given here.
Tested on: CCRIS mutagenicity, Ames/micronucleus/aberration tests
Experiment: CCRIS mutagenicity studies
[1] = Test System: AMES SALMONELLA TYPHIMURIUM, Strain/Indicator: TA97, Metabolic Activation: HAMSTER, LIVER, S-9, AROCLOR 1254 (10%), Method: PREINCUBATION
[2] = Test System: AMES SALMONELLA TYPHIMURIUM, Strain/Indicator: TA97, Metabolic Activation: NONE, Method: PREINCUBATION
[3] = Test System: AMES SALMONELLA TYPHIMURIUM, Strain/Indicator: TA97, Metabolic Activation: RAT, LIVER, S-9, AROCLOR 1254 (10%), Method: PREINCUBATION
[4] = Test System: AMES SALMONELLA TYPHIMURIUM, Strain/Indicator: TA98, Metabolic Activation: HAMSTER, LIVER, S-9, AROCLOR 1254 (10%), Method: PREINCUBATION
[5] = Test System: AMES SALMONELLA TYPHIMURIUM, Strain/Indicator: TA98, Metabolic Activation: NONE, Method: PREINCUBATION
[6] = Test System: AMES SALMONELLA TYPHIMURIUM, Strain/Indicator: TA98, Metabolic Activation: RAT, LIVER, S-9, AROCLOR 1254 (10%), Method: PREINCUBATION
[7] = Test System: AMES SALMONELLA TYPHIMURIUM, Strain/Indicator: TA100, Metabolic Activation: HAMSTER, LIVER, S-9, AROCLOR 1254 (10%), Method: PREINCUBATION
[8] = Test System: AMES SALMONELLA TYPHIMURIUM, Strain/Indicator: TA100, Metabolic Activation: NONE, Method: PREINCUBATION
[9] = Test System: AMES SALMONELLA TYPHIMURIUM, Strain/Indicator: TA100, Metabolic Activation: RAT, LIVER, S-9, AROCLOR 1254 (10%), Method: PREINCUBATION
[10] = Test System: AMES SALMONELLA TYPHIMURIUM, Strain/Indicator: TA1535, Metabolic Activation: HAMSTER, LIVER, S-9, AROCLOR 1254 (10%), Method: PREINCUBATION
[11] = Test System: AMES SALMONELLA TYPHIMURIUM, Strain/Indicator: TA1535, Metabolic Activation: NONE, Method: PREINCUBATION
[12] = Test System: AMES SALMONELLA TYPHIMURIUM, Strain/Indicator: TA1535, Metabolic Activation: RAT, LIVER, S-9, AROCLOR 1254 (10%), Method: PREINCUBATION
[13] = Test System: AMES SALMONELLA TYPHIMURIUM, Strain/Indicator: TA98, Metabolic Activation: NONE, Method: STANDARD PLATE
[14] = Test System: AMES SALMONELLA TYPHIMURIUM, Strain/Indicator: TA98, Metabolic Activation: RAT, LIVER, S-9, AROCLOR 1254, Method: STANDARD PLATE
[15] = Test System: AMES SALMONELLA TYPHIMURIUM, Strain/Indicator: TA100, Metabolic Activation: NONE, Method: STANDARD PLATE
[16] = Test System: AMES SALMONELLA TYPHIMURIUM, Strain/Indicator: TA1535, Metabolic Activation: NONE, Method: STANDARD PLATE
[17] = Test System: AMES SALMONELLA TYPHIMURIUM, Strain/Indicator: TA1537, Metabolic Activation: NONE, Method: STANDARD PLATE

In the case of CCCCC(CC)COCCCN (stereo unspecified), the mutagenic call [1] was “inactive; negative”, the mutagenic call (Test System: AMES SALMONELLA TYPHIMURIUM, Strain/Indicator: TA97, Metabolic Activation: HAMSTER, LIVER, S-9, AROCLOR 1254 (30%), Method: PREINCUBATION) was “inactive; negative” and the mutagenic call [2] was “inactive; negative”. For the same molecule, the mutagenic call [3] was “inactive; negative”, the mutagenic call (Test System: AMES SALMONELLA TYPHIMURIUM, Strain/Indicator: TA97, Metabolic Activation: RAT, LIVER, S-9, AROCLOR 1254 (30%), Method: PREINCUBATION) was “inactive; negative” and the mutagenic call [4] was “inactive; negative”. For the same molecule, the mutagenic call (Test System: AMES SALMONELLA TYPHIMURIUM, Strain/Indicator: TA98, Metabolic Activation: HAMSTER, LIVER, S-9, AROCLOR 1254 (30%), Method: PREINCUBATION) was “inactive; negative”, the mutagenic call [5] was “inactive; negative” and the mutagenic call [6] was “inactive; negative”. For the same molecule, the mutagenic call (Test System: AMES SALMONELLA TYPHIMURIUM, Strain/Indicator: TA98, Metabolic Activation: RAT, LIVER, S-9, AROCLOR 1254 (30%), Method: PREINCUBATION) was “inactive; negative”, the mutagenic call [7] was “inactive; negative” and the mutagenic call (Test System: AMES SALMONELLA TYPHIMURIUM, Strain/Indicator: TA100, Metabolic Activation: HAMSTER, LIVER, S-9, AROCLOR 1254 (30%), Method: PREINCUBATION) was “inactive; negative”. For the same molecule, the mutagenic call [8] was “inactive; negative”, the mutagenic call [9] was “inactive; negative” and the mutagenic call (Test System: AMES SALMONELLA TYPHIMURIUM, Strain/Indicator: TA100, Metabolic Activation: RAT, LIVER, S-9, AROCLOR 1254 (30%), Method: PREINCUBATION) was “inactive; negative”. The mutagenic call [10] was “inactive; negative”, the mutagenic call (Test System: AMES SALMONELLA TYPHIMURIUM, Strain/Indicator: TA1535, Metabolic Activation: HAMSTER, LIVER, S-9, AROCLOR 1254 (30%), Method: PREINCUBATION) was “inactive; negative” and the mutagenic call [11] was “inactive; negative”. For the same molecule, the mutagenic call [12] was “inactive; negative” and the mutagenic call (Test System: AMES SALMONELLA TYPHIMURIUM, Strain/Indicator: TA1535, Metabolic Activation: RAT, LIVER, S-9, AROCLOR 1254 (30%), Method: PREINCUBATION) was “inactive; negative”.

For Nc1ccc(N)c2c1C(=O)c1c(N)ccc(N)c1C2=O, the mutagenic call (End Point: IN VITRO CHROMOSOMAL ABERRATIONS, Test System: CHO CELLS, Metabolic Activation: NONE) was “active; positive”, the mutagenic call (End Point: IN VITRO CHROMOSOMAL ABERRATIONS, Test System: CHO CELLS, Metabolic Activation: RAT, LIVER, S-9, AROCLOR 1254) was “active; positive” and the mutagenic call [1] was “inactive; negative”. For the same molecule, the mutagenic call (Test System: AMES SALMONELLA TYPHIMURIUM, Strain/Indicator: TA97, Metabolic Activation: HAMSTER, LIVER, S-9, AROCLOR 1254, Method: PREINCUBATION) was “active; positive”, the mutagenic call [2] was “active; positive” and the mutagenic call [3] was “inactive; negative”. For the same molecule, the mutagenic call (Test System: AMES SALMONELLA TYPHIMURIUM, Strain/Indicator: TA97, Metabolic Activation: RAT, LIVER, S-9, AROCLOR 1254, Method: PREINCUBATION) was “active; positive”, the mutagenic call [4] was “active; positive” and the mutagenic call (Test System: AMES SALMONELLA TYPHIMURIUM, Strain/Indicator: TA98, Metabolic Activation: HAMSTER, LIVER, S-9, AROCLOR 1254, Method: PREINCUBATION) was “active; positive”. The mutagenic call [5] was “active; positive”, the mutagenic call [13] was “inactive; negative” and the mutagenic call [6] was “active; positive”. The mutagenic call (Test System: AMES SALMONELLA TYPHIMURIUM, Strain/Indicator: TA98, Metabolic Activation: RAT, LIVER, S-9, AROCLOR 1254, Method: PREINCUBATION) was “active; positive”, the mutagenic call [14] was “inactive; negative” and the mutagenic call [7] was “inactive; negative”. For the same molecule, the mutagenic call (Test System: AMES SALMONELLA TYPHIMURIUM, Strain/Indicator: TA100, Metabolic Activation: HAMSTER, LIVER, S-9, AROCLOR 1254, Method: PREINCUBATION) was “inactive; negative”, the mutagenic call [8] was “inactive; negative” and the mutagenic call [15] was “inactive; negative”. For the same molecule, the mutagenic call [9] was “inactive; negative”, the mutagenic call (Test System: AMES SALMONELLA TYPHIMURIUM, Strain/Indicator: TA100, Metabolic Activation: RAT, LIVER, S-9, AROCLOR 1254, Method: PREINCUBATION) was “inactive; negative” and the mutagenic call (Test System: AMES SALMONELLA TYPHIMURIUM, Strain/Indicator: TA100, Metabolic Activation: RAT, LIVER, S-9, AROCLOR 1254, Method: STANDARD PLATE) was “inactive; negative”. For the same molecule, the mutagenic call [10] was “active; positive”, the mutagenic call (Test System: AMES SALMONELLA TYPHIMURIUM, Strain/Indicator: TA1535, Metabolic Activation: HAMSTER, LIVER, S-9, AROCLOR 1254, Method: PREINCUBATION) was “active; positive” and the mutagenic call [11] was “inactive; negative”. For the same molecule, the mutagenic call [16] was “inactive; negative”, the mutagenic call [12] was “active; positive” and the mutagenic call (Test System: AMES SALMONELLA TYPHIMURIUM, Strain/Indicator: TA1535, Metabolic Activation: RAT, LIVER, S-9, AROCLOR 1254, Method: PREINCUBATION) was “active; positive”. For the same molecule, the mutagenic call (Test System: AMES SALMONELLA TYPHIMURIUM, Strain/Indicator: TA1535, Metabolic Activation: RAT, LIVER, S-9, AROCLOR 1254, Method: STANDARD PLATE) was “inactive; negative”, the mutagenic call [17] was “active; positive” and the mutagenic call (Test System: AMES SALMONELLA TYPHIMURIUM, Strain/Indicator: TA1538, Metabolic Activation: RAT, LIVER, S-9, AROCLOR 1254, Method: STANDARD PLATE) was “inactive; negative”. The mutagenic call (Test System: MOUSE LYMPHOMA, Strain/Indicator: L5178Y (TK+/TK-), Metabolic Activation: NONE, Method: SUSPENSION/PLATE) was “active; positive”.

For CCn1c2ccccc2c2ccccc21, the mutagenic call (Test System: UDS PRIMARY RAT HEPATOCYTES, Strain/Indicator: THY INCORP, Metabolic Activation: NONE, Method: AUTORADIOGRAPHY) was “active; positive”.

For CC(=O)N(Cl)c1ccc2c(c1)Cc1ccccc1-2, the mutagenic call [14] was “active; positive”.

BrCc1ccc2c3c(cccc13)-c1ccccc1-2 was tested, and the mutagenic call [13] was “active; positive” and the mutagenic call [15] was “active; positive”.

With O=P(O)(O)Oc1c(Br)cc(Br)cc1-c1cc(Br)cc(Br)c1O the mutagenic call [13] was “inactive; negative”, the mutagenic call (Test System: AMES SALMONELLA TYPHIMURIUM, Strain/Indicator: TA98, Metabolic Activation: RAT, LIVER, S-9, KANECHLOR 400, Method: STANDARD PLATE) was “inactive; negative” and the mutagenic call [15] was “inactive; negative”. The mutagenic call (Test System: AMES SALMONELLA TYPHIMURIUM, Strain/Indicator: TA100, Metabolic Activation: RAT, LIVER, S-9, KANECHLOR 400, Method: STANDARD PLATE) was “inactive; negative”, the mutagenic call [16] was “inactive; negative” and the mutagenic call (Test System: AMES SALMONELLA TYPHIMURIUM, Strain/Indicator: TA1535, Metabolic Activation: RAT, LIVER, S-9, KANECHLOR 400, Method: STANDARD PLATE) was “inactive; negative”. For the same molecule, the mutagenic call [17] was “inactive; negative”, the mutagenic call (Test System: AMES SALMONELLA TYPHIMURIUM, Strain/Indicator: TA1537, Metabolic Activation: RAT, LIVER, S-9, KANECHLOR 400, Method: STANDARD PLATE) was “inactive; negative” and the mutagenic call (Test System: AMES SALMONELLA TYPHIMURIUM, Strain/Indicator: TA1538, Metabolic Activation: NONE, Method: STANDARD PLATE) was “inactive; negative”. The mutagenic call (Test System: AMES SALMONELLA TYPHIMURIUM, Strain/Indicator: TA1538, Metabolic Activation: RAT, LIVER, S-9, KANECHLOR 400, Method: STANDARD PLATE) was “inactive; negative”.

In the case of CCc1c2ccccc2cc2c1c1c(c3ccccc32)N1, the mutagenic call [5] was “active; positive”.
